Literature values as cited in patent US11648240B2, “Pharmaceutical composition comprising famotidine, lidocaine and melatonin” (Cellix Bio Private Limited, priority 2021, dated 2023).

Legend:
sars-cov-2 = conditions: in-vitro studies
CYP1A2 = CYP1A2 (Homo sapiens, UniProt P05177); conditions: stated as believed, no test described
[1] = test system: human immunodeficiency virus; conditions: in-vitro studies

Chain of CYP1A2 (P05177 whole entry, species assumed): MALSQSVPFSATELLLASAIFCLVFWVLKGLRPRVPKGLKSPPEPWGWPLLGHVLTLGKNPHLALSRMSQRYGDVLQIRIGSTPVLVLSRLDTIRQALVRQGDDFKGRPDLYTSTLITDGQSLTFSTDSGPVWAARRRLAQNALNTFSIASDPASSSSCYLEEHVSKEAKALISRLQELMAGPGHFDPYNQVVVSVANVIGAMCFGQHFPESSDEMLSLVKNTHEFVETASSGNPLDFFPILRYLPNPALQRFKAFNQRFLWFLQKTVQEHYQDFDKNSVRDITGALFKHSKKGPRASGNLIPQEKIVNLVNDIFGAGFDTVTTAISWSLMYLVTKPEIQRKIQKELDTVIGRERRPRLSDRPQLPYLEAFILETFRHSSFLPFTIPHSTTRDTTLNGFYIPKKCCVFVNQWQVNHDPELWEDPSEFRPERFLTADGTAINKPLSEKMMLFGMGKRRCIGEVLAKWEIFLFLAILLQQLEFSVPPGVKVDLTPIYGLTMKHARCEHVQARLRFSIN

NC(N)=Nc1nc(CSCCC(N)=NS(N)(=O)=O)cs1 [Famotidine]
sars-cov-2 replication (sars-cov-2): inhibits
metabolism through Cytochrome P450 system (CYP1A2) (CYP1A2): 25-30%
human immunodeficiency virus replication [1]: inhibits
